Measured values as given in US4708871A, “Antigenically active amino acid sequences” (priority 1983, dated 1987).
Values joined by “and” are separate entries in the source; they are usually repeats but may differ in a detail not shown here. Identical values can stand only once. No end group written: not given here.

Test system: antiserum known to react with the original sequence (FMDV Type A10)
Format: binding, rabbit

GDLGSI [GDLGSI]
Antibody-binding activity, percentage of the mean activity of the six parent sequences: 105 percentage and 118 percentage and 88 percentage and 98 percentage and 85 percentage and 106 percentage
